Data on five compounds can be found in ChEMBL document CHEMBL3632564, “Synthesis of 17-membered azalides from a 16-membered macrolide utilizing amide-selective silane reduction” (2015).

What all share (format): functional
In one assay the test system is Haemophilus influenzae. As to the kind of experiment: Antibacterial activity against beta-lactamase-negative ampicillin-resistant Gram-negative Haemophilus influenzae ME587 after 18 hrs by agar dilution method. To be noted: ME587, 18 h.
The subject of assay [1] is Streptococcus pneumoniae. In words: Antibacterial activity against penicillin-susceptible Gram-positive Streptococcus pneumoniae S-223 after 18 hrs by agar dilution method. To be noted: S-223, 18 h.
Assay [2] deals with Streptococcus pneumoniae. As to the kind of experiment: Antibacterial activity against penicillin-resistant Gram-positive Streptococcus pneumoniae JPS317 after 18 hrs by agar dilution method. Particulars: JPS317, 18 h.
For assay [3], the system named is Streptococcus pneumoniae. As to the kind of experiment: Antibacterial activity against penicillin-intermediate Gram-positive Streptococcus pneumoniae TY-5745 after 18 hrs by agar dilution method. Particulars: TY-5745, 18 h.

SMILES strings stand for the structures. Values after ≈ are worked out from the molar mass of the structure shown.

Consider `CC[C@H]1OC(=O)CC[C@H](C)[C@@H](O[C@@H]2O[C@H](C)C[C@H](N(C)C)[C@H]2O)[C@@H](CC=O)C[C@@H](C)CN(C)CC/C(C)=C/[C@@H]1CO`, for which the MIC against Haemophilus influenzae was 4 µg/mL (≈ 6.86 µM); in the assay on Streptococcus pneumoniae [1], 8 µg/mL (≈ 13.7 µM); in the assay on Streptococcus pneumoniae [2], 8 µg/mL (≈ 13.7 µM); in the assay with Streptococcus pneumoniae [3], 16 µg/mL (≈ 27.5 µM).

Regarding `CC[C@H]1OC(=O)CC[C@H](C)[C@@H](O[C@@H]2O[C@H](C)C[C@H](N(C)C)[C@H]2O)[C@@H](CC=O)C[C@@H](C)N(C)CCC/C(C)=C/[C@@H]1CO`, the MIC in the assay with Haemophilus influenzae came out at 4 µg/mL (≈ 6.86 µM); in the assay with Streptococcus pneumoniae [1], 8 µg/mL (≈ 13.7 µM); with Streptococcus pneumoniae [2] it was 8 µg/mL (≈ 13.7 µM); against Streptococcus pneumoniae [3] it was 32 µg/mL (≈ 54.9 µM).

With `CC[C@H]1OC(=O)CC[C@H](C)[C@@H](O[C@@H]2O[C@H](C)C[C@H](N(C)C)[C@H]2O)[C@@H](CC=O)C[C@@H](C)N(C)C/C=C/C(C)=C/[C@@H]1CO`, the MIC was 4 µg/mL (≈ 6.89 µM) against Haemophilus influenzae, 16 µg/mL (≈ 27.5 µM) against Streptococcus pneumoniae [1], 32 µg/mL (≈ 55.1 µM) in the assay with Streptococcus pneumoniae [2] and 32 µg/mL (≈ 55.1 µM) against Streptococcus pneumoniae [3].

`CC[C@H]1OC(=O)CC[C@H](C)[C@@H](O[C@@H]2O[C@H](C)C[C@H](N(C)C)[C@H]2O)[C@@H](CC=O)C[C@@H](C)C(=O)/C=C/C(C)=C/[C@@H]1CO`: the MIC in the assay on Haemophilus influenzae turned out to be 1 µg/mL (≈ 1.77 µM); against Streptococcus pneumoniae [1] it was 0.25 µg/mL (≈ 0.442 µM); in the assay with Streptococcus pneumoniae [2], 0.5 µg/mL (≈ 0.884 µM); with Streptococcus pneumoniae [3] it was 1 µg/mL (≈ 1.77 µM).

As to `CC[C@H]1OC(=O)[C@H](C)[C@@H](O[C@H]2C[C@@](C)(OC)[C@@H](O)[C@H](C)O2)[C@H](C)[C@@H](O[C@@H]2O[C@H](C)C[C@H](N(C)C)[C@H]2O)[C@](C)(O)C[C@@H](C)CN(C)[C@H](C)[C@@H](O)[C@]1(C)O` [AZITHROMYCIN], the MIC in the assay with Haemophilus influenzae amounted to 1 µg/mL (≈ 1.34 µM); in the assay on Streptococcus pneumoniae [1] it was 0.25 µg/mL (≈ 0.334 µM); against Streptococcus pneumoniae [2], 8 µg/mL (≈ 10.7 µM); against Streptococcus pneumoniae [3], 1 µg/mL (≈ 1.34 µM).
